Test results from ChEMBL document CHEMBL3272273, “Synthesis and pharmacological activity and some derivatives of 1-phenyl-1,2,3,4-tetrahydro-5H-1,4-benzodiazepin-5-one” (J Med Chem, 1978).

How the values were obtained:
Mus musculus [1] = test: Toxicity in ip dosed albino mouse assessed as barbiturate-induced sleep by measuring loss of righting reflex relative to control; assay type: organism-based; conditions: in vivo
Mus musculus [2] = test: Anticonvulsant activity in ip dosed albino mouse assessed as dose causing >25% increase in maximal electroshock-induced maximal extensor seizure relative to untreated control; assay type: functional
Mus musculus [3] = test: Neurotoxicity in albino mouse at 10 mg/kg, po up to 5 mins by rotorod test relative to control; assay type: toxicity, organism-based; set-up: dose 10 mg/kg, route oral; conditions: in vivo
Ileum [4] = test: Antihistamine activity in guinea pig ileum assessed as dose required to decrease 50 to 100% of histamine induced effect treated 5 mins before histamine addition; assay type: functional, Cavia porcellus
Mus musculus [5] = test: Toxicity in ip dosed albino mouse assessed as barbiturate-induced sleep by measuring loss of righting reflex administered 45 mins before barbiturate challenge relative to control; assay type: organism-based; conditions: in vivo, 0.75 h
Mus musculus [6] = test: Toxicity in albino mouse assessed as translatory movements at 10 mg/kg, ip relative to control; assay type: organism-based; set-up: dose 10 mg/kg, route intraperitoneal; conditions: in vivo
[7] = Antinoradrenaline activity in isolated Wistar rat caudal artery assessed as dose required to decrease 20 to 50% of noradrenaline-induced effect per 6 mL/min after 15 mins; assay type: functional
[8] = Acute toxicity in ip dosed albino mouse measured within 24 hrs; assay type: organism-based; conditions: in vivo
[9] = Antitrypatamine activity in isolated Wistar rat caudal artery assessed as dose required to decrease 20 to 50% of […]-induced effect per 6 mL/min after 15 mins; assay type: functional
Ileum [10] = test: Antiacetylcholine activity in guinea pig ileum assessed as dose required to decrease 50 to 100% of acetylcholine-induced effect treated 5 mins before acetylcholine addition; assay type: functional, Cavia porcellus
Mus musculus [11] = test: Toxicity in ip dosed mouse assessed as sedative action; assay type: organism-based; conditions: in vivo
Mus musculus [12] = test: Toxicity in ip dosed albino mouse assessed as dose required to increase 25% of dl-amphetamine sulfate-induced death; assay type: organism-based; conditions: in vivo
Mus musculus [13] = test: Toxicity in albino mouse assessed as body-temperature variation at 10 mg/kg, ip measured 20 mins after dl-amphetamine sulfate injection dosed 30 mins before dl-amphetamine sulfate injection; assay type: organism-based; set-up: dose 10 mg/kg, route intraperitoneal; conditions: in vivo
Mus musculus [14] = test: Toxicity in albino mouse assessed as body-temperature variation at 5 mg/kg, ip measured 20 mins after dl-amphetamine sulfate injection dosed 30 mins before dl-amphetamine sulfate injection; assay type: organism-based; set-up: dose 5 mg/kg, route intraperitoneal; conditions: in vivo
Mus musculus [15] = test: Toxicity in albino mouse assessed as translatory movements at 5 mg/kg, ip relative to control; assay type: organism-based; set-up: dose 5 mg/kg, route intraperitoneal; conditions: in vivo
Mus musculus [16] = test: Neurotoxicity in albino mouse at 5 mg/kg, po up to 5 mins by rotorod test relative to control; assay type: toxicity, organism-based; set-up: dose 5 mg/kg, route oral; conditions: in vivo
Mus musculus [17] = test: Anticonvulsant activity in ip dosed albino mouse assessed as dose causing total prevention of maximal electroshock-induced maximal extensor seizure; assay type: functional

SMILES | Activity (Mus musculus [1]) [%] | Activity (Mus musculus [2]) [mg/kg] | Activity (Mus musculus [3]) [%] | Activity (Ileum [4]) [µg/mL] | Activity (Mus musculus [5]) [%] | Activity (Mus musculus [6]) [%] | Activity [7] [µg/min] | LD50 at 24 h [8] [mg/kg] | Activity [9] [µg/min] | Activity (Ileum [10]) [µg/mL] | Activity (Mus musculus [11]) | Activity (Mus musculus [12]) [mg/kg] | temperature change (Mus musculus [13]) [°C] | temperature change (Mus musculus [14]) [°C] | Activity (Mus musculus [15]) [%] | Activity (Mus musculus [16]) [%] | Activity (Mus musculus [17]) [mg/kg]
CN(C)CCCN1CCN(c2ccccc2)c2ccccc2C1=O | 35 | 10 | -12 | 100 | 10 | -15 | 160 | 116 | 50 | 100 | Non-toxic | – | – | – | – | – | –
O=C1c2ccccc2N(c2ccccc2)CCN1CCN1CCCCC1 | 45 | 25 | -27 | 50 | 20 | -11 | 25 | 75 | 25 | 100 | Non-toxic | 10 | 1.4 | – | – | – | –
Nc1ccc2c(c1)C(=O)NCCN2c1ccc([N+](=O)[O-])cc1 | 70 | – | 39 | 200 | 50 | -15 | – | > 400 | – | 50 | Non-toxic | – | 1.2 | – | – | – | –
C[N+]1(CCN2CCN(c3ccccc3)c3ccccc3C2=O)CCCCC1.[I-] | 20 | – | 8 | 200 | 3 | – | 25 | 15 | 50 | 50 | Non-toxic | – | – | 0.9 | -20 | – | –
CN(C)CCN1CCN(c2ccccc2)c2ccccc2C1=O | 4 | 50 | -6 | 50 | 15 | -30 | 200 | 100 | 50 | 100 | Non-toxic | 10 | 0.6 | – | – | – | –
C[N+](C)(C)CCN1CCN(c2ccccc2)c2ccccc2C1=O.[I-] | -40 | 15 | – | 50 | 15 | – | 50 | 35 | 50 | 50 | Non-toxic | 5 | – | -0.3 | 20 | -21 | –
Nc1ccc(N2CCNC(=O)c3ccccc32)cc1 | 90 | – | -20 | 200 | 50 | 2 | – | > 400 | – | 200 | Non-toxic | – | 1.4 | – | – | – | –
CNC1=Nc2ccc(Cl)cc2C(c2ccccc2)=[N+]([O-])C1 [CHLORDIAZEPOXIDE] | – | – | -50 | 3 | – | -40 | 18 | 780 | 20 | 3 | Non-toxic | – | – | – | – | – | 90
CC[N+](C)(CC)CCN1CCN(c2ccccc2)c2ccccc2C1=O.[I-] | -40 | 5 | – | 50 | 5 | – | 50 | 15 | 15 | 50 | Non-toxic | 3 | – | 1.4 | -3 | 20 | –
O=C1NCCN(c2ccc([N+](=O)[O-])cc2)c2ccc([N+](=O)[O-])cc21 | 40 | – | -45 | 200 | 50 | -21 | – | > 400 | – | 200 | Non-toxic | – | 1 | – | – | – | –
C[N+]1(CCN2CCN(c3ccccc3)c3ccccc3C2=O)CCCC1.[I-] | 30 | 3 | 11 | 50 | 5 | – | 5 | 10 | 50 | 100 | Non-toxic | 3 | – | 1.6 | -8 | – | –
CCN(CC)CCN1CCN(c2ccccc2)c2ccccc2C1=O | 40 | 5 | 11 | 100 | 10 | 1 | 80 | 75 | 50 | 100 | Non-toxic | – | – | – | – | – | –
C[N+](C)(C)CCCN1CCN(c2ccccc2)c2ccccc2C1=O.[I-] | -25 | 10 | – | 50 | 10 | – | 100 | 50 | 50 | 50 | Non-toxic | 5 | – | 1.2 | -5 | 70 | –
CC(C[N+](C)(C)C)N1CCN(c2ccccc2)c2ccccc2C1=O.[I-] (stereo unspecified) | -15 | 5 | – | 50 | 5 | – | 50 | 15 | 15 | 200 | Non-toxic | – | – | 0.3 | 1 | -7 | –
CN1C(=O)CN=C(c2ccccc2)c2cc(Cl)ccc21 [DIAZEPAM] | – | – | -40 | 4 | – | -50 | – | – | – | – | Non-toxic | – | – | – | – | – | 50
O=C1c2ccccc2N(c2ccccc2)CCN1CCN1CCCC1 | 60 | – | -32 | 50 | 20 | -10 | 15 | 80 | 50 | 100 | Non-toxic | – | -0.2 | – | – | – | –
CC(CN(C)C)N1CCN(c2ccccc2)c2ccccc2C1=O (stereo unspecified) | 20 | 12 | -25 | 50 | 12.5 | 4 | 160 | 130 | 50 | 50 | Non-toxic | – | – | – | – | – | –
